From ChEMBL document CHEMBL3507680, “University of Dundee, Gates Library screen for HepG2 cell viability”

Assay: Human HepG2 cell viability assay in 384 well format
Format: toxicity, cell-based
Design: dose 125 nL, time 70.5 hour; concentration not given beside the values
Conditions: HepG2 cells, read-out: Inhibition

## Clc1snnc1CN1CCCCC1Cn1cccn1 (configuration not stated)
  cytotoxicity at 70.5 h: 26.2%

## c1ncn(CC2CCCCN2Cc2csc(-c3ccsc3)n2)n1 (configuration not stated)
  cytotoxicity at 70.5 h: -7.71%

## COCc1nc(CN(CC(N)=O)C(C)C)cs1
  cytotoxicity at 70.5 h: -3.43%

## CCc1n[nH]c(C2CN(Cc3nnc(C4CC4)o3)CCO2)n1 (configuration not stated)
  cytotoxicity at 70.5 h: -1.31%

## Cc1nc(C)n(C2CCCN(C(=O)c3sccc3C)C2)n1 (configuration not stated)
  cytotoxicity at 70.5 h: -5.74%

## COc1cc(C)sc1C(=O)N1CCCC(n2nc(C)nc2C)C1 (configuration not stated)
  cytotoxicity at 70.5 h: 21.7%

## CCCc1n[nH]c(C2CN(Cc3nnc(C4CCC4)o3)CCO2)n1 (configuration not stated)
  cytotoxicity at 70.5 h: -5.35%

## CC(NC(=O)NCCCc1n[nH]c(N)c1C#N)c1ccc(F)cc1 (configuration not stated)
  cytotoxicity at 70.5 h: -6.13%

## CCOc1ncccc1CNC(=O)NCC(O)c1ccccc1OC (configuration not stated)
  cytotoxicity at 70.5 h: -1.39%

## Cn1c(NCC(O)c2ccc(F)c(F)c2)c(C#N)c(=O)n(C)c1=O (configuration not stated)
  cytotoxicity at 70.5 h: 1.75%

## COc1ccccc1C(O)CNC(=O)Nc1ccccn1 (configuration not stated)
  cytotoxicity at 70.5 h: -5.18%

## COc1cc(C(=O)Nc2nc(C)no2)cc(Cl)c1OC
  cytotoxicity at 70.5 h: -3.51%

## CCc1nc(CN(C)CC(N)=O)cs1
  cytotoxicity at 70.5 h: -4.25%

## COc1ccc(OC)c(C(O)CNC(=O)Nc2cccnc2OC)c1 (configuration not stated)
  cytotoxicity at 70.5 h: -6.93%

## COc1ccccc1C(O)CNC(=O)Nc1cccnc1OC (configuration not stated)
  cytotoxicity at 70.5 h: -3.1%

## COc1ccccc1C(O)CNc1c(C#N)c(=O)n(C)c(=O)n1C (configuration not stated)
  cytotoxicity at 70.5 h: -0.895%

## CC(C)c1nc(CN(CC(N)=O)C(C)C)cs1
  cytotoxicity at 70.5 h: -2.05%

## CN(C)C(=O)C1CCN(Cc2csc(C(C)(C)C)n2)CC1
  cytotoxicity at 70.5 h: 18%

## c1ncn(CC2CCCN2Cc2csc(C3CCCCC3)n2)n1 (configuration not stated)
  cytotoxicity at 70.5 h: 1.84%

## Clc1snnc1CN1CCCC1Cn1cccn1 (configuration not stated)
  cytotoxicity at 70.5 h: -1.24%

## COc1ccsc1C(=O)N1CCCC(n2nc(C)cc2C)C1 (configuration not stated)
  cytotoxicity at 70.5 h: -3.66%

## Cc1nc(CN2CCC(N3CCN(C)C3=O)CC2)no1
  cytotoxicity at 70.5 h: 18%

## COc1cc(Cl)ccc1C(=O)N1CCCC(n2nc(C)nc2C)C1 (configuration not stated)
  cytotoxicity at 70.5 h: -0.226%

## COc1ccsc1C(=O)N1CCCC(n2cncn2)C1 (configuration not stated)
  cytotoxicity at 70.5 h: -2.59%

## CC(C)(C)c1n[nH]c(C2CN(Cc3nnc(C4CC4)o3)CCO2)n1 (configuration not stated)
  cytotoxicity at 70.5 h: -6.03%

## CCc1nc(CN(C(C)=O)C2CCN(Cc3ccccc3F)C2)no1 (configuration not stated)
  cytotoxicity at 70.5 h: -7.96%

## COc1ccccc1OCCNC1CCCN(Cc2noc(C)n2)C1 (configuration not stated)
  cytotoxicity at 70.5 h: 31.2%

## CCc1nc(CN(C(C)=O)C2CCN(CC3CCOCC3)C2)no1 (configuration not stated)
  cytotoxicity at 70.5 h: -9.95%

## COc1ccc(CCNC2CCCN(Cc3noc(C)n3)C2)cc1 (configuration not stated)
  cytotoxicity at 70.5 h: -14%

## O=C1C(NS(=O)(=O)c2ccc(F)cc2)CCN1Cc1ccccc1 (configuration not stated)
  cytotoxicity at 70.5 h: -13.4%

## COc1ccc(C2=CCN(C(=O)CN(C)S(C)(=O)=O)CC2)cc1
  cytotoxicity at 70.5 h: -10.2%

## COc1ccc(C2=CCN(C(=O)CN(CC(N)=O)C(C)C)CC2)cc1
  cytotoxicity at 70.5 h: -4.3%

## Cc1cc(CN2CCN(CC(O)c3ccc4c(c3)OCO4)CC2)no1 (configuration not stated)
  cytotoxicity at 70.5 h: -10.8%

## Cc1nc(C)n(CC2CCCN2CCOc2ccccc2C#N)n1 (configuration not stated)
  cytotoxicity at 70.5 h: -13.6%

## Cc1cc(CN2CCN(CC(O)c3ccc(C)c(C)c3)CC2)no1 (configuration not stated)
  cytotoxicity at 70.5 h: -7.74%

## Cc1ccc(S(=O)(=O)NC(=O)COc2cccc(C(N)=O)c2)s1
  cytotoxicity at 70.5 h: -10.7%

## Cc1nc(C)n(CC2CCCN2CCCOc2ccc(C#N)cc2)n1 (configuration not stated)
  cytotoxicity at 70.5 h: -4.85%

## Cc1nc(C)n(CC2CCCN2CCOc2ccc(F)cc2)n1 (configuration not stated)
  cytotoxicity at 70.5 h: -9.83%

## Cc1nc(CN2CCCC(NCCOc3ccccc3C#N)C2)no1 (configuration not stated)
  cytotoxicity at 70.5 h: -2.51%

## Cc1cc(C)n(C2CCCN(C(=O)Cc3cccs3)C2)n1 (configuration not stated)
  cytotoxicity at 70.5 h: 11%

## CN1CCOC(CNCc2coc(-c3ccccc3Cl)n2)C1 (configuration not stated)
  cytotoxicity at 70.5 h: 1.39%

## CCN(CC1CCCO1)C(=O)Nc1cc(C)ccc1S(C)(=O)=O (configuration not stated)
  cytotoxicity at 70.5 h: -1.66%

## O=C(Cc1cccnc1)N1CCCC(n2cncn2)C1 (configuration not stated)
  cytotoxicity at 70.5 h: -1.4%

## COCCOc1cccc(CNCC2CN(C)CCO2)c1 (configuration not stated)
  cytotoxicity at 70.5 h: -0.0199%

## CN1CCOC(CNCc2ccc(OCc3ccccn3)cc2)C1 (configuration not stated)
  cytotoxicity at 70.5 h: -6.69%

## Cc1cc(NC(=O)NCC(c2ccccc2)N2CCOCC2)n(C)n1 (configuration not stated)
  cytotoxicity at 70.5 h: -3.59%

## Cc1nc(CSCCC(=O)NCc2ccc(N(C)C)cc2)cs1
  cytotoxicity at 70.5 h: -3.76%
